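48-hour exposure; five concentrations; linearly interpolated endpoints. GI50: concentration for 50% inhibition of growth.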 Active and inactive are the calls of the source. Rule as the data show it: active = GI50 up to about 1.1 µM and inactive = higher.
What was measured:
Assay in all cases: growth of human tumour cells (NCI), 48 h
HOP-92 = test system: HOP-92
OVCAR-4 = test system: OVCAR-4
HL-60 = test system: HL-60
OVCAR-3 = test system: OVCAR-3
A549 = test system: A549
MCF7 = test system: MCF7
HCT-116 = test system: HCT-116
Hs-578T = test system: Hs-578T
SN12C = test system: SN12C
NCI/ADR-RES = test system: NCI/ADR-RES
SR = test system: SR
OVCAR-5 = test system: OVCAR-5
U-251 = test system: U-251
Malme-3M = test system: Malme-3M
CCRF-CEM = test system: CCRF-CEM
LOX IMVI = test system: LOX IMVI
T47D = test system: T47D
NCI-H226 = test system: NCI-H226
M14 = test system: M14
MDA-MB-231 = test system: MDA-MB-231
SW-620 = test system: SW-620
UO-31 = test system: UO-31
OVCAR-8 = test system: OVCAR-8
EKVX = test system: EKVX
MDA-MB-435 = test system: MDA-MB-435
KM12 = test system: KM12
NCI-H522 = test system: NCI-H522
TK-10 = test system: TK-10
K562 = test system: K562
HCT-15 = test system: HCT-15
SK-OV-3 = test system: SK-OV-3
SF-268 = test system: SF-268
SK-MEL-2 = test system: SK-MEL-2
MDA-N = test system: MDA-N
DU-145 = test system: DU-145
SNB-75 = test system: SNB-75
BT-549 = test system: BT-549
SF-295 = test system: SF-295
RPMI-8226 = test system: RPMI-8226
SNB-19 = test system: SNB-19
HCC 2998 = test system: HCC 2998
UACC-257 = test system: UACC-257
NCI-H23 = test system: NCI-H23
NCI-H460 = test system: NCI-H460
SK-MEL-5 = test system: SK-MEL-5
ACHN = test system: ACHN
RXF 393 = test system: RXF 393
IGROV-1 = test system: IGROV-1
HT-29 = test system: HT-29
PC-3 = test system: PC-3
COLO 205 = test system: COLO 205
UACC-62 = test system: UACC-62
786-0 = test system: 786-0
SF-539 = test system: SF-539
MOLT-4 = test system: MOLT-4
SK-MEL-28 = test system: SK-MEL-28
A498 = test system: A498
HOP-62 = test system: HOP-62
CAKI-1 = test system: CAKI-1

Measured: GI50

COc1cccc(C2c3cc4c(cc3OC(C)(O)C2C)OCO4)c1O (stereo unspecified)
3.64 µM: HCT-15
inactive: HOP-92 6 µM | OVCAR-4 11.6 µM | HL-60 2.82 µM | OVCAR-3 2.81 µM | A549 4.57 µM | MCF7 4.25 µM | HCT-116 3.64 µM | Hs-578T 2.68 µM | SN12C 5.27 µM | NCI/ADR-RES 2.13 µM | SR 2.18 µM | OVCAR-5 8.09 µM | U-251 3.83 µM | Malme-3M 6.18 µM | CCRF-CEM 4.45 µM | LOX IMVI 5.12 µM | T47D 3.82 µM | NCI-H226 5.12 µM | M14 3.48 µM | SW-620 3.25 µM | UO-31 6.14 µM | OVCAR-8 4.94 µM | EKVX 13.6 µM | MDA-MB-435 1.42 µM | KM12 3.33 µM | NCI-H522 2.27 µM | TK-10 5.56 µM | K562 3.87 µM | SK-OV-3 3.57 µM | SF-268 8.79 µM | SK-MEL-2 9.89 µM | MDA-N 1.48 µM | DU-145 4.48 µM | SNB-75 5 µM | BT-549 9.71 µM | SF-295 2.96 µM | RPMI-8226 4.17 µM | SNB-19 5.2 µM | HCC 2998 4.2 µM | UACC-257 8.15 µM | NCI-H460 3.81 µM | SK-MEL-5 2.84 µM | ACHN 7.06 µM | RXF 393 3.69 µM | IGROV-1 5.2 µM | HT-29 3.88 µM | PC-3 3.37 µM | COLO 205 2.19 µM | UACC-62 5.12 µM | 786-0 4.44 µM | SF-539 2.67 µM | MOLT-4 5.25 µM | SK-MEL-28 10.5 µM | A498 3.24 µM | HOP-62 4.2 µM
active: MDA-MB-231 0.897 µM | NCI-H23 0.966 µM

COc1cc2cc(C(=O)N3CC(COS(C)(=O)=O)c4ccc(NC(=O)OCc5ccccc5)cc43)[nH]c2c(OC)c1OC (stereo unspecified)
inactive: CAKI-1 > 100 µM | HOP-92 9.59 µM | OVCAR-4 > 100 µM | HL-60 > 100 µM | OVCAR-3 > 100 µM | A549 > 100 µM | HCT-116 > 100 µM | Hs-578T > 100 µM | SN12C > 100 µM | NCI/ADR-RES > 100 µM | SR 3.24 µM | OVCAR-5 > 100 µM | U-251 > 100 µM | Malme-3M > 100 µM | CCRF-CEM > 100 µM | LOX IMVI > 100 µM | T47D > 100 µM | NCI-H226 > 100 µM | M14 > 100 µM | MDA-MB-231 > 100 µM | SW-620 > 100 µM | UO-31 > 100 µM | OVCAR-8 > 100 µM | EKVX > 100 µM | MDA-MB-435 > 100 µM | KM12 > 100 µM | NCI-H522 99.1 µM | TK-10 > 100 µM | K562 > 100 µM | SK-OV-3 > 100 µM | SF-268 > 100 µM | SK-MEL-2 67.1 µM | MDA-N > 100 µM | DU-145 > 100 µM | SNB-75 28.9 µM | BT-549 > 100 µM | SF-295 > 100 µM | SNB-19 > 100 µM | HCC 2998 84.3 µM | UACC-257 > 100 µM | NCI-H23 17 µM | NCI-H460 91.8 µM | SK-MEL-5 26.5 µM | ACHN > 100 µM | RXF 393 25.2 µM | IGROV-1 > 100 µM | HT-29 > 100 µM | PC-3 > 100 µM | COLO 205 > 100 µM | UACC-62 > 100 µM | 786-0 > 100 µM | SF-539 > 100 µM | MOLT-4 28.3 µM | SK-MEL-28 > 100 µM | A498 43.3 µM | HOP-62 79.1 µM
active: MCF7 0.55 µM
> 100 µM: HCT-15
